Laboratory results as given in US4542153A, “Methods for changing calcium metabolism within the cells of a mammal” (The Ohio State University Research Foundation, priority 1983, dated 1985).
pIC50: −log10 of the molar value. “Also recorded” adds a separate entry of the source.

Key:
isolated left atria = test: Effects on isolated guinea pig atria: electrically driven left atria; type: cell-based
Description: (§1) The effects of pr-MDI, bu-MDI and Q-bu-MDI on the mechanical and electrical behavior of isolated guinea pig atria were investigated by the method of H. Nawrath, J. Pharmacol. Exp. Ther., 16, 176-182 (1980). The compounds were investigated over the concentration range of 10^-8 to 3×10^-4 M.
(§2) English short-haired guinea pigs, supplied by Carr Animal Supply, of Powell, Ohio, weighing 300-600 g. were killed by a blow on the head and both atria of the animal were quickly dissected out and suspended in a water-jacketed organ bath containing Krebs-Henseleit solution through which a 95% oxygen/5% carbon dioxide mixture was bubbled at 32° C. The solution contained 6.92 g/l of sodium chloride, 0.35 g/l of potassium chloride, 0.29 g/l of magnesium […] heptahydrate, 0.3 g/l of calcium chloride dihydrate, 0.16 g/l of potassium dihydrogen phosphate, 2.1 g/l of sodium bicarbonate and 2.1 g/l of dextrose. The contractile force generated by the isolated artria was recorded isometrically under a 500 mg. preload using a Narco Biosystems force transducer connected to a physiograph DMP-4B recorder, both the transducer and the recorder being obtained from E & M Instrument Co. of Houston, Texas.
The isolated left atria were electrically driven by square wave impulses of 3 milliseconds duration at a frequency of 3 Hz. and a voltage of twice the threshold voltage, delivered by a Grass S9 stimulator obtained from Grass Instrument Co., of Quincy, Massachusetts. Two platinum electrodes were used for the stimulation, the anode being in direct contact with the atrial tissue while the cathode had the form of a ring suspended 2.5 centimeters above the anode. Before redetermination of the threshold voltage and generation of a predrug (control) frequency-force profile over the range of 1-5 Hz., an equilibriation time of one hour was allowed. The system was then re-equilibriated at 3 Hz. and twice the threshold voltage as before, then one cumulative dose-response curve of contractile force for one test compound was obtained, followed immediately by redetermination of the threshold voltage and the generation of a post-drug frequency-force profile.
A paired Student's t-test was used to compare predrug and postdrug threshold voltages for each left atrial preparations as well as to compare developed tension at each frequency in the profile of each left atrial preparation. P values of less than 0.05 were considered statistically significant.

[1] = system: spontaneously beating right atria; test: Effects on isolated guinea pig atria: spontaneously beating right atria; type: cell-based
Description: as §1, §2
Spontaneously beating right atria were tested in a similar manner.

arrhythmia in mammals = settings: in vivo
[2] = system: thoracic aorta strips contracted with norepinephrine; test: Vasodilator activity: norepinephrine-contracted aortic strips; type: cell-based, male Sprague-Dawley rats
Description: (§3) Pr-MDI, bu-MDI, Q-bu-MDI and the compounds of Formulae IIIA, IIIB and IVA having the two R1 groups together forming a methylene group, each R3 a methyl group and R2 an n-propyl group or n-butyl group (the compounds of Formula III are hereinafter abbreviated as sat-pr-MDI and sat-bu-MDI respectively, reference being made where necessary to the cis isomer of Formula III A or the trans isomer of Formula III B while the compounds of Formula IV are similarly referred to as cis sat-Q-pr-MDI and cis sat-Q-bu-MDI) were tested for vasodilator activity by the method of R. F. Furchgott and S. Bhadrakom, J. P. Pharmacol. Ex. Ther., 108, 129-143 (1953).
(§4) The vasodilator activity tests were conducted on male Sprague-Dawley rats, obtained from Harlan Industries, Inc., Cumberland, Indiana. The rats, weight 250-300 g., were sacrified by cervical dislocation and a 2.5 cm. segment of the thoracic aorta was removed and rinshed in physiological buffer. Each aortic segment was cleaned of connective tissue and cut spirally two yield to strips, each 3 by 15 mm. Each strip was mounted isometrically under a tension of 1 g in a 10 ml. tissue bath thermostatically maintained at 37° C. and containing a normal physiological solution aerated with a 95% oxygen/5% carbon dioxide mixture. Forces generated by the strip were monitored using a Grass FT03 isometric transducer coupled to a Grass module 7D polygraph recorder, both the transducer and the recorder being obtained from Grass Instrument Co., of Quincy, Mass.
(§5) After the aortic tissue had been allowed to equilibriate for 1-1.5 hours in the normal physiologic solution, tissue contraction was induced by introducing either 10^-7 M norepinephrine or 40mM potassium chloride buffer to the tissue bath.
(§6) To avoid interference by loss of tension due to time dependent tissue fatigue, separate preliminary experiments were performed to determine the degree of tissue relaxation due to such fatigue and the value of the control tension generated by norepinephrine or potassium chloride prior to the addition of the test compounds was adjusted whenever the duration of the experiment was such that fatigue could be expected to cause more than a 6% loss of tension. […] All concentrations mentioned hereinafter represent the final concentration of the test compound after dilution in the tissue bath.
(§7) The figures of concentration against percent response data obtained from each aortic tissue were transformed to its appropriate probit value and IC50 values were then estimated using linear regression analysis. The normal physiological solution contained 6.9 g/l of sodium chloride, 0.35 g/l of potassium chloride, 0.11 g/l of magnesium chloride hexahydrate, 0.138 g/l of sodium dihydrogen phosphate, 2.1 g/l of sodium bicarbonate, 0.01 g/l of EDTA, 0.368 g/l of calcium chloride dihydrate and 2.0 g/l of dextrose. The high potassium buffers were obtained by substituting potassium chloride for sodium chloride on an equimolar basis to maintain tonicity.

[3] = system: chloroform anoxia arrhythmia in mice; test: Chloroform Anoxia Assay (chloroform-induced ventricular fibrillation); type: in vivo, Female Swiss albino mice
Method: The same four compounds were tested for their ability to protect mice from chloroform anoxia by the classical chloroform inhalation procedure described in Lawson J. W.: Antiarrhythmic activity of some isoquinoline derivatives determined by a rapid screening procedure in the mouse, J. Pharmacol. Exp. Ther. 160: 22-31, (1968). In this method, chloroform inhalation leading to respiratory arrest produces ventricular fibrillation. Female Swiss albino mice procured from Laboratory Supply Company, Indianapolis, Indiana, weighing 16-22 g, were pretreated intraperitoneally with the compound under test dissolved in a 5% dextrose solution 10 minutes before exposure to chloroform in a closed container containing chloroform-saturated cotton. The mice were removed from the chloroform atmosphere immediately after respiratory arrest and the electrocardiograph lead II monitored. The ED 50 and 95% confidence limits calculated for the anti-arrhythmic agents by the standard method of Litchfield and Wilcoxon.

[4] = system: thoracic aorta strips contracted with potassium chloride; test: Vasodilator activity: potassium chloride-contracted aortic strips; type: cell-based, male Sprague-Dawley rats; settings: rat aorta contracted with 40 mM potassium chloride; read-out: IC50 (mean and range of SEM) KCl
Description: as §3, §4, §5, §6, §7

mice = test: Toxicity Tests (intraperitoneal LD50); type: in vivo; settings: i.p., table: mean values and 95% confidence limits

CCCCC1=Cc2cc3c(cc2C1[N+](C)(C)C)OCO3.[I-] (centres unmarked) [Q-bu-MDI, 2-Butyl-5,6-methylenedioxyindene-1-trimethylammonium iodide]
effect on frequency-force profile/relation of the stimulated left atrium (isolated left atria; 3×10^-4 M): no significant effect
effect on the contractile force of left atrium at the highest concentration (isolated left atria; 3×10^-4 M): partially reversed
effect on threshold voltage required to drive the atria (isolated left atria; 3×10^-4 M): no significant effect upon the threshold voltage
dose-dependent decrease in the contractile force of the electrically stimulated left atrium (isolated left atria; 10^-4 M, 100 µM): ≤ 20%
effect on contractile force of the electrically stimulated left atrium (isolated left atria; 10^-8 to 3×10^-4 M): very modest; also recorded: much less than the other two compounds
overall effect on mechanical and electrical behavior of atria (isolated left atria; 10^-8 to 3×10^-4 M): much smaller than that of bu-MDI or pr-MDI
persistent effects on frequency-force relation and threshold voltage (isolated left atria; maximum concentration 3×10^-4 M): did not produce any persistent effects
effect on the contractile force of right atria at the highest concentration ([1]; 3×10^-4 M): positive inotropy
effect on spontaneous atrial rate ([1]; 10^-8 to 3×10^-4 M): only a slight decrease in the spontaneous atrial rate; also recorded: much less than the other two compounds
effect on the contractile force of right atria ([1]; except at 3×10^-4 M for Q-bu-MDI): minimal effects on the contractile force of right atria
effectiveness relative to tertiary analog (bu-MDI), average over tests (arrhythmia in mammals): about four
relaxation of the aortic tissue ([2]; norepinephrine- or KCl-treated tissue): relaxed the aortic tissue
comparative vasodilator activity, norepinephrine-treated tissue ([2]; norepinephrine-treated aortic tissue): less active in vitro than their tertiary analogs
pIC50 ([2]; rat aorta contracted with 10^-7 M norepinephrine, read-out: IC50 (mean and range of SEM) Norepinephrine): 3.89
Therapeutic Index (LD50/ED50) ([3]; ED50 from chloroform anoxia, LD50 i.p.): 6.2
ED50 ([3]; i.p., 10 min before chloroform, table: mean values and 95% confidence limits, n = 40): 10.5 mg/kg
ED50 compared with quinidine (statistical test) ([3]; i.p., p<<0.05): significantly smaller than that of quinidine
Antiarrhythmic Potency ([3]; quinidine = 1.00, chloroform anoxia): 6.38
pIC50 [4]: 3.77
LD50 (mice): 65 mg/kg
